This is an account of results in US8609847B2, “Dihydroquinolinone derivatives” (Taisho Pharmaceutical Co., Ltd, priority 2009, dated 2013).

This assay deals with T1, human H3 receptor (Homo sapiens, UniProt Q9Y5N1).
T1 construct: purchased Perkin Elmer ES-392-M400UA; host or cells: CHO-K1 cells (recombinant expression), membrane preparation
T1 sequence (Q9Y5N1 whole entry): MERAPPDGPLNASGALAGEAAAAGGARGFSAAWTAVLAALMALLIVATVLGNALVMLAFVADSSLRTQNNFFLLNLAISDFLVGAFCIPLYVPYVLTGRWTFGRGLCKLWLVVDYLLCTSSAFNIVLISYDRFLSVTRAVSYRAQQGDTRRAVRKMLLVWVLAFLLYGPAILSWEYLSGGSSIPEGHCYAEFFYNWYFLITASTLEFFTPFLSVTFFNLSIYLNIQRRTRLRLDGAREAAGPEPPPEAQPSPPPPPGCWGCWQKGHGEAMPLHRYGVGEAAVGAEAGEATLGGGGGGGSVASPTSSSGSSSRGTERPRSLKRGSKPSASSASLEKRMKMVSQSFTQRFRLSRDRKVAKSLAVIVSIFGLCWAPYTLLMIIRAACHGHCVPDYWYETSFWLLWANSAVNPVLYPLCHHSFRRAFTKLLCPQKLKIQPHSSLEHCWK
Put plainly: H3 Receptor Binding Test. The following applies: 50% inhibition of R(−)-α-methyl[3H]histamine (1 nM) binding; membrane preparation of human H3 receptor-expressing CHO-K1 cells. How it is done:
A membrane preparation of human H3 receptor-expressing CHO-K1 cells (Perkin Elmer, ES-392-M400UA, 15 μg protein/200 μl), R(−)-α-methyl[^3H]histamine (Amersham, TRK-1017, specific activity: 1.74 TBq/mmol, 1 nM) and a test drug were reacted at room temperature for 1 hour. After completion of the reaction, the reaction mixture was subjected to suction filtration through a 0.3% polyethyleneimine-treated glass filter (GF/C). The glass filter was washed five times with 50 mM Tris-HCl washing solution (pH 7.4) containing 5 mM EDTA. After washing, the glass filter was dried and a scintillator was added thereto, followed by measurement of radioactivity on the filter using a liquid scintillation counter.
Binding of R(−)-α-methyl[^3H]histamine in the presence of 10 μM R(−)-α-methylhistamine was defined as non-specific binding, and the difference between total binding and non-specific binding of R(−)-α-methyl[^3H]histamine was defined as specific binding of R(−)-α-methyl[^3H]histamine. A fixed concentration (1 nM) of R(−)-α-methyl[^3H]histamine was reacted under the above conditions with each test drug at various concentrations to obtain an inhibition curve. The inhibition curve was used to determine the concentration (IC50) of each test drug required for 50% inhibition of R(−)-α-methyl[^3H]histamine binding.
Regarding `C[C@@H]1CCCN1CCCOc1ccc2c(c1)CCC(=O)N2c1cccnc1` [Compound No. 35, 6-{3-[(2R)-2-methylpyrrolidin-1-yl]propoxy}-1-(pyridin-3-yl)-3,4-dihydroquinolin-2(1H)-one], the 50% inhibitory concentration (IC50) came to 2.2 nM.

As for `C[C@@H]1CCCN1CCCOc1ccc2c(c1)CCC(=O)N2c1cncnc1` [Compound No. 36, 6-{3-[(2R)-2-methylpyrrolidin-1-yl]propoxy}-1-(pyrimidin-5-yl)-3,4-dihydroquinolin-2(1H)-one], the IC50 was determined as 5.8 nM.

Turning to `C[C@@H]1CCCN1CCCOc1ccc2c(c1)CCC(=O)N2c1cnc2ccccc2c1` [Compound No. 37, 6-{3-[(2R)-2-methylpyrrolidin-1-yl]propoxy}-3,4-dihydro-2H-1,3′-biquinolin-2-one], the IC50 came to 3.1 nM.

On to `C[C@@H]1CCCN1CCCOc1ccc2c(c1)CCC(=O)N2c1ccc2ncccc2c1` [Compound No. 38, 6-{3-[(2R)-2-methylpyrrolidin-1-yl]propoxy}-3,4-dihydro-2H-1,6′-biquinolin-2-one], for which the IC50 was 2.9 nM. To `C[C@@H]1CCCN1CCCOc1ccc2c(c1)CCC(=O)N2c1cnc2cccnc2c1` [Compound No. 39, 6-{3-[(2R)-2-methylpyrrolidin-1-yl]propoxy}-1-(1,5-naphthylizin-3-yl)-3,4-dihydroquinolin-2(1H)-one] belongs 4.4 nM. Turning to `C[C@@H]1CCCN1CCCOc1ccc2c(c1)CCC(=O)N2c1cncc2cccnc12` [Compound No. 40, 6-{3-[(2R)-2-methylpyrrolidin-1-yl]propoxy}-1-(1,6-naphthylizin-8-yl)-3,4-dihydroquinolin-2(1H)-one], the IC50 stood at 20 nM. Regarding `C[C@@H]1CCCN1CCCOc1ccc2c(c1)CCC(=O)N2c1ccc2c(ccn2C(=O)OC(C)(C)C)c1` [Compound No. 41, tert-butyl 5-[6-{3-[(2R)-2-methylpyrrolidin-1-yl]propoxy}-2-oxo-3,4-dihydroquinolin-1(2H)-yl]-1H-indole-1-carboxylate], the IC50 is 53 nM. To `C[C@@H]1CCCN1CCCOc1ccc2c(c1)CCC(=O)N2c1cn(C(=O)OC(C)(C)C)c2ccccc12` [Compound No. 42, tert-butyl 3-[6-{3-[(2R)-2-methylpyrrolidin-1-yl]propoxy}-2-oxo-3,4-dihydroquinolin-1(2H)-yl]-1H-indole-1-carboxylate] belongs 34 nM; to `C[C@@H]1CCCN1CCCOc1ccc2c(c1)CCC(=O)N2c1ccc2c(c1)OCCO2` [Compound No. 43, 1-(2,3-dihydro-1,4-benzodioxin-6-yl)-6-{3-[(2R)-2-methylpyrrolidin-1-yl]propoxy}-3,4-dihydroquinolin-2(1H)-one], 2.2 nM. Take `C[C@@H]1CCCN1CCCOc1ccc2c(c1)CCC(=O)N2c1ccc2c(c1)OCO2` [Compound No. 44, 1-(1,3-benzodioxol-5-yl)-6-{3-[(2R)-2-methylpyrrolidin-1-yl]propoxy}-3,4-dihydroquinolin-2(1H)-one]: the IC50 is 1.2 nM. Next, `C[C@@H]1CCCN1CCCOc1ccc2c(c1)CCC(=O)N2c1ccc2c(c1)OCC2` [Compound No. 45, 1-(2,3-dihydro-1-benzofuran-6-yl)-6-{3-[(2R)-2-methylpyrrolidin-1-yl]propoxy}-3,4-dihydroquinolin-2(1H)-one]: 2.3 nM; `C[C@@H]1CCCN1CCCOc1ccc2c(c1)CCC(=O)N2c1ccc(C#N)cn1` [Compound No. 46, 6-[6-{3-[(2R)-2-methylpyrrolidin-1-yl]propoxy}-2-oxo-3,4-dihydroquinolin-1(2H)-yl]pyridine-3-carbonitrile]: 22 nM. On to `Cc1ccc(N2C(=O)CCc3cc(OCCCN4CCC[C@H]4C)ccc32)cn1` [Compound No. 47, 1-(6-methylpyridin-3-yl)-6-{3-[(2R)-2-methylpyrrolidin-1-yl]propoxy}-3,4-dihydroquinolin-2(1H)-one], for which the IC50 came to 2.9 nM. As to `COc1ccc(N2C(=O)CCc3cc(OCCCN4CCC[C@H]4C)ccc32)cn1` [Compound No. 48, 1-(6-methoxypyridin-3-yl)-6-{3-[(2R)-2-methylpyrrolidin-1-yl]propoxy}-3,4-dihydroquinolin-2(1H)-one], the IC50 turned out to be 8.7 nM. As to `C[C@@H]1CCCN1CCCOc1ccc2c(c1)CCC(=O)N2c1ccc(Cl)cn1` [Compound No. 49, 1-(5-chloropyridin-2-yl)-6-{3-[(2R)-2-methylpyrrolidin-1-yl]propoxy}-3,4-dihydroquinolin-2(1H)-one], the IC50 was found to be 4 nM.

In the case of `C[C@@H]1CCCN1CCCOc1ccc2c(c1)CCC(=O)N2c1cncc(C#N)c1` [Compound No. 50, 5-[6-{3-[(2R)-2-methylpyrrolidin-1-yl]propoxy}-2-oxo-3,4-dihydroquinolin-1(2H)-yl]pyridine-3-carbonitrile], the half-inhibitory concentration (IC50) came out at 5.7 nM. To `C[C@@H]1CCCN1CCCOc1ccc2c(c1)CCC(=O)N2c1ncccc1C#N` [Compound No. 51, 2-[6-{3-[(2R)-2-methylpyrrolidin-1-yl]propoxy}-2-oxo-3,4-dihydroquinolin-1(2H)-yl]pyridine-3-carbonitrile] belongs 13 nM. On to `C[C@@H]1CCCN1CCCOc1ccc2c(c1)CCC(=O)N2c1cncc(F)c1` [Compound No. 52, 1-(5-fluoropyridin-3-yl)-6-{3-[(2R)-2-methylpyrrolidin-1-yl]propoxy}-3,4-dihydroquinolin-2(1H)-one], for which the IC50 came to 1.2 nM. Next, `C[C@@H]1CCCN1CCCOc1ccc2c(c1)CCC(=O)N2c1ccn(C)c(=O)c1` [Compound No. 54, 1-(1-methyl-2-oxo-1,2-dihydropyridin-4-yl)-6-{3-[(2R)-2-methylpyrrolidin-1-yl]propoxy}-3,4-dihydroquinolin-2(1H)-one]: 4.8 nM.

As for `COc1ccc2ncc(N3C(=O)CCc4cc(OCCCN5CCC[C@H]5C)ccc43)cc2c1` [Compound No. 55, 6′-methoxy-6-{3-[(2R)-2-methylpyrrolidin-1-yl]propoxy}-3,4-dihydro-2H-1,3′-biquinolin-2-one], the half-maximal inhibitory concentration (IC50) worked out at 5.4 nM. Next, `C[C@@H]1CCCN1CCCOc1ccc2c(c1)CCC(=O)N2c1ccc2[nH]ccc2c1` [Compound No. 56, 1-(1H-indol-5-yl)-6-{3-[(2R)-2-methylpyrrolidin-1-yl]propoxy}-3,4-dihydroquinolin-2(1H)-one]: 1.3 nM; `C[C@@H]1CCCN1CCCOc1ccc2c(c1)CCC(=O)N2c1c[nH]c2ccccc12` [Compound No. 57, 1-(1H-indol-3-yl)-6-{3-[(2R)-2-methylpyrrolidin-1-yl]propoxy}-3,4-dihydroquinolin-2(1H)-one]: 0.76 nM; `CC(C)(C)N1CCC(Oc2ccc3c(c2)CCC(=O)N3c2cnc3ccccc3c2)CC1` [Compound No. 59, 6-[(1-tert-butylpiperidin-4-yl)oxy]-3,4-dihydro-2H-1,3′-biquinolin-2-one]: 8.5 nM.

`CC(C)(C)N1CCC(Oc2ccc3c(c2)CCC(=O)N3c2ccccc2)CC1` [Compound No. 61, 6-[(1-tert-butylpiperidin-4-yl)oxy]-1-phenyl-3,4-dihydroquinolin-2(1H)-one]: the IC50 was determined as 2.4 nM. Next, `CC(C)(C)N1CCC(Oc2ccc3c(c2)CCC(=O)N3c2ccc(C#N)cc2)CC1` [Compound No. 62, 4-{6-[(1-tert-butylpiperidin-4-yl)oxy]-2-oxo-3,4-dihydroquinolin-1(2H)-yl}benzonitrile]: 4.9 nM; `CC(C)(C)N1CCC(Oc2ccc3c(c2)CCC(=O)N3c2cccc(C#N)c2)CC1` [Compound No. 63, 3-{6-[(1-tert-butylpiperidin-4-yl)oxy]-2-oxo-3,4-dihydroquinolin-1(2H)-yl}benzonitrile]: 6.1 nM; `CC(C)(C)N1CCC(Oc2ccc3c(c2)CCC(=O)N3c2cncc(F)c2)CC1` [Compound No. 64, 6-[(1-tert-butylpiperidin-4-yl)oxy]-1-(5-fluoropyridin-3-yl)-3,4-dihydroquinolin-2(1H)-one]: 5.3 nM. Consider `COc1ccc(N2C(=O)CCc3cc(OC4CCN(C(C)(C)C)CC4)ccc32)cn1` [Compound No. 65, 6-[(1-tert-butylpiperidin-4-yl)oxy]-1-(6-methoxypyridin-3-yl)-3,4-dihydroquinolin-2(1H)-one], for which the IC50 was found to be 12 nM. For the compound `CC(C)(C)N1CCC(Oc2ccc3c(c2)CCC(=O)N3c2ccc(F)cc2)CC1` [Compound No. 66, 6-[(1-tert-butylpiperidin-4-yl)oxy]-1-(4-fluorophenyl)-3,4-dihydroquinolin-2(1H)-one], the IC50 is 3.7 nM. As to `COc1ccc(N2C(=O)CCc3cc(OC4CCN(C5CCC5)CC4)ccc32)cn1` [Compound No. 67, 6-[(1-cyclobutylpiperidin-4-yl)oxy]-1-(6-methoxypyridin-3-yl)-3,4-dihydroquinolin-2(1H)-one], the IC50 came to 2.7 nM.

Regarding `O=C1CCc2cc(OC3CCN(C4CCC4)CC3)ccc2N1c1cc(F)cc(F)c1` [Compound No. 68, 6-[(1-cyclobutylpiperidin-4-yl)oxy]-1-(3,5-difluorophenyl)-3,4-dihydroquinolin-2(1H)-one], the IC50 is 0.72 nM. In the case of `O=C1CCc2cc(OC3CCN(C4CCC4)CC3)ccc2N1c1ccc(Cl)cc1` [Compound No. 70, 1-(4-chlorophenyl)-6-[(1-cyclobutylpiperidin-4-yl)oxy]-3,4-dihydroquinolin-2(1H)-one], the 50% inhibitory concentration (IC50) was found to be 0.75 nM.
